Results from the NIST ThermoML archive (doi:10.1007/s10765-007-0241-8).

Conditions: Liquid; for mass density: Constant-volume piezometry; for thermal conductivity: Hot wire method

CCCCCCCC[n+]1ccn(C)c1.F[P-](F)(F)(F)(F)F [1-octyl-3-methylimidazolium hexafluorophosphate]
Conditions | mass density, 295.1 K [kg/m3] | mass density, 315.1 K [kg/m3] | mass density, 335.2 K [kg/m3] | thermal conductivity, 295.1 K [W/m/K] | thermal conductivity, 315.1 K [W/m/K] | thermal conductivity, 335.2 K [W/m/K]
100 kPa | 1236 | 1222 | 1207 | 0.145 | 0.145 | 0.144
10000 kPa | 1243 | 1228 | 1213 | 0.147 | 0.146 | 0.146
20000 kPa | 1249 | 1234 | 1219 | 0.147 | 0.147 | 0.147

CCCCn1cc[n+](C)c1.F[P-](F)(F)(F)(F)F [1-butyl-3-methylimidazolium hexafluorophosphate]
Conditions | mass density, 100 kPa [kg/m3] | mass density, 10000 kPa [kg/m3] | mass density, 20000 kPa [kg/m3] | thermal conductivity, 0.1 kPa [W/m/K] | thermal conductivity, 10 kPa [W/m/K] | thermal conductivity, 20 kPa [W/m/K]
294.9 K | 1369 | 1373 | 1378 | 0.145 | 0.146 | 0.148
315 K | 1352 | 1357 | 1362 | 0.145 | 0.146 | 0.147
335.1 K | 1336 | 1341 | 1347 | 0.144 | 0.145 | 0.147

Cc1ccccc1 [toluene]
thermal conductivity [W/m/K]
Conditions | 294.2 K | 314.1 K | 334.4 K
100 kPa | 0.132 | 0.127 | 0.122
10000 kPa | 0.136 | 0.131 | 0.126
20000 kPa | 0.139 | 0.135 | 0.129

CCCCCCn1cc[n+](C)c1.F[P-](F)(F)(F)(F)F [1-hexyl-3-methylimidazolium hexafluorophosphate]
Conditions | mass density, 294.1 K [kg/m3] | mass density, 315.1 K [kg/m3] | mass density, 335.2 K [kg/m3] | thermal conductivity, 294.1 K [W/m/K] | thermal conductivity, 315.1 K [W/m/K] | thermal conductivity, 335.2 K [W/m/K]
100 kPa | 1294 | 1278 | 1262 | 0.145 | 0.145 | 0.144
10000 kPa | 1300 | 1284 | 1268 | 0.147 | 0.146 | 0.146
20000 kPa | 1306 | 1290 | 1274 | 0.148 | 0.148 | 0.147

CCCCCCCC [octane]
100 kPa
Conditions | thermal conductivity [W/m/K]
294.5 K | 0.126
314.7 K | 0.121
334.8 K | 0.115
